Drawing on ChEMBL document CHEMBL2424594, “Contributions of academic laboratories to the discovery and development of chemical biology tools” (J Med Chem, 2013), this text covers Ki and Ratio Ki for 2 compounds.

The target of one assay is Cannabinoid receptor 2 (Homo sapiens, UniProt P34972). Briefly: Binding affinity to CB2 receptor (unknown origin).
The species named for a further assay is Homo sapiens. Put plainly: Selectivity ratio of Ki for CB1 receptor (unknown origin) to Ki for CB2 receptor (unknown origin).
For the next assay, the target named is Cannabinoid receptor 1 (Homo sapiens, UniProt P21554). Put plainly: Binding affinity to CB1 receptor (unknown origin).
Cannabinoid receptor 1, sequence (P21554 whole entry): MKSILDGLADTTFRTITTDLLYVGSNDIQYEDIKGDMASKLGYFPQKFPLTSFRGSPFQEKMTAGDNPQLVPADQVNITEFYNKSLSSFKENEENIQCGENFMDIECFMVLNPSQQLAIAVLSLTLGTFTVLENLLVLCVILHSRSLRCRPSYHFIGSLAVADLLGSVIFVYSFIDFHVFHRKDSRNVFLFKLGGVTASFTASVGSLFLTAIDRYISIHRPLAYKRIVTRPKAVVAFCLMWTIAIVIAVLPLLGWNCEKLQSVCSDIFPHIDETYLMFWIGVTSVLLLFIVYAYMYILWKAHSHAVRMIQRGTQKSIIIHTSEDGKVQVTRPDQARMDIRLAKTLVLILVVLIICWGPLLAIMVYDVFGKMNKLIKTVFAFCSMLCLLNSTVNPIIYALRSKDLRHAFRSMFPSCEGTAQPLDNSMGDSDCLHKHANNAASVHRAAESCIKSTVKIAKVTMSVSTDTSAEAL

Cannabinoid receptor 2, sequence (P34972 whole entry): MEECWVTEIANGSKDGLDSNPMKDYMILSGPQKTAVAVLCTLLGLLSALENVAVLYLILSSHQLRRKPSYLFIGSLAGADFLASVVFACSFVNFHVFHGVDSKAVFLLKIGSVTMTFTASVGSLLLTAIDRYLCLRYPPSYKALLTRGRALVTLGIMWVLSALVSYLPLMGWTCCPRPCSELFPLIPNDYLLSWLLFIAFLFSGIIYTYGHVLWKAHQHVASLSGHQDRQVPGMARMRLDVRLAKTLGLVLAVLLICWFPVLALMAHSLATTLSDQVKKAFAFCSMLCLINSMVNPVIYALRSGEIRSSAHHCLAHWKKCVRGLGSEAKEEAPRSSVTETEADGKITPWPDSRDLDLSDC

One may read the Ki as a dissociation constant, usually derived from enzyme kinetics or from competition with a known ligand. Read a high Ki as a looser hold on the target. In the case of `CN1CCCCC1Cn1cc(C(=O)c2cc([N+](=O)[O-])ccc2I)c2ccccc21` (racemic), the Ki at Cannabinoid receptor 2 was found to be 3.4 nM; at Cannabinoid receptor 1, 280 nM. Moreover, the Ratio Ki in the assay listed under Homo sapiens is 82.

For the compound `CCCn1cc(C(=O)c2ccc(C)c3ccccc23)c2ccccc21`, the Ratio Ki in the assay listed under Homo sapiens was 173.
